Legend:
[1] = biological target: T1, human P2X3 receptor (Homo sapiens, UniProt P56373); test: Calcium luminescence measurement: human P2X3 receptor activity inhibition (CHO-K1 cells, photoprotein readout, FLEXSTATION); format: cell-based; conditions: CHO-K1 cells co-expressing human P2X3 and Ca2+ sensitive photoprotein; agonist α,β-Met-ATP; read-out: h-P2X3 IC50
T1 construct: expressed in transfected cells; host or cells: CHO-K1
T1 sequence (P56373 1-397): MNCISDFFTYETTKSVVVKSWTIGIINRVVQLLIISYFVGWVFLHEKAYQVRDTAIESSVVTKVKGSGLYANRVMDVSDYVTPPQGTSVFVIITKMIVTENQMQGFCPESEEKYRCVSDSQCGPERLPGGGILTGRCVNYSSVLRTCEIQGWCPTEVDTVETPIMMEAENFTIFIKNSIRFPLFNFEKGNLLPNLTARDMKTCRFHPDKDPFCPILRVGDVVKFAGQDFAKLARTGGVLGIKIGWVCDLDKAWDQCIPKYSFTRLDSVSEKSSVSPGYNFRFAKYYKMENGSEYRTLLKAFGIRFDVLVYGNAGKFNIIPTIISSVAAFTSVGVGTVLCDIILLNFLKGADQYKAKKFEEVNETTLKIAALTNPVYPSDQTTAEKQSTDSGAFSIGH
Protocol: Determination of human P2X3 receptor activity inhibition
The assay for the human purinergic P2RX3 receptor has been adapted to the internal screening instrumentation using the FLEXSTATION as reader and a photoprotein as luminescent readout. The assay consists of CHO-K1 cells recombinantly co-expressing the human P2rx3 receptor and a Ca^2+ sensitive photoprotein. Cells are maintained in DMEM F-12 (1:1) mixture (LONZA cat. n° BE04-687F/U1) supplemented with 9 mL of 100 mM Sodium Pyruvate (LONZA cat. n° BE13-115E), 29 mL of 7.5% Sodium Bicarbonate (LONZA cat. n° BE17-613E), 5.5 mL of 1 M Hepes (LONZA cat. n° BE17-737E), 5 mL of 100X Penicillin/Streptomycin mixture (LONZA cat. n° DE17-602E) and 50 mL of Fetal Bovine Serum (Sigma cat. n° F7524), 1 mg/mL G418 disulfate salt (Sigma cat. n° G8168) and 5 µg/ml Puromycin dihydrochloride (Sigma cat. n° P9620). Standard propagation conditions consist of seeding in a P75 flask twice a week, recovering about 20×10^6 cells, corresponding to about 80% confluency. Cells were seeded into black-walled clear bottom 96 well plates at a density of 40000 cells/well in a complete medium. After 24 h the culture medium was replaced with 200 µL/well of coelenterazine in Tyrode's buffer (Standard Tyrode's buffer: in house solution, 130 mM NaCl, 5 mM KCl, 2 mM CaCl2, 5 mM NaHCO3, 1 mM MgCl2, 20 mM HEPES, pH 7.4). Coelenterazine was purchased from BIOSYNTH (cat. n° C-7001). 10 mM stock solution was prepared in DMSO and glutathione and stored at -20° C. The plates were incubated for 4 hours at 37°C, and injected with 10 µL/well of test compounds at 25X concentration in Tyrode's buffer. After 4 minutes a second injection of 50 µL/well of 5X α,β-Met-ATP in Tyrode's buffer (α,β-Met-ATP: from Tocris (cat. n° 3209), was dissolved at 100 mM in water and stored in aliquots at -20°C) was performed and the signal of the emitted luminescence was recorded by FLEXSTATION III (Molecular Devices). […]
The inhibition curves of the tested compounds at cloned P2X3 receptor were determined by nonlinear regression analysis using software Prism 5.0 (Graphpad, San Diego, CA). The IC50 values and pseudo-Hill slope coefficients were estimated by the program.

[2] = biological target: T2, human P2X2/3 receptor (Homo sapiens, UniProt P56373+Q9UBL9); test: Calcium fluorescence measurement: human P2X2/3 receptor activity inhibition (CHO-K1 cells, Fluo-8 NoWash, […]); format: cell-based; conditions: for IC50: CHO-K1 cells expressing human P2RX2/X3 channel, 10µM α,β-Met-ATP, read-out: h-P2X2/3 IC50; for Selectivity: ratio of IC50 of P2X2/3/ P2X3 receptors
T2 construct: expressed in transfected cells; host or cells: CHO-K1
T2 sequence (P56373 1-397): T1 sequence (P56373 1-397)
T2 sequence (Q9UBL9 1-471): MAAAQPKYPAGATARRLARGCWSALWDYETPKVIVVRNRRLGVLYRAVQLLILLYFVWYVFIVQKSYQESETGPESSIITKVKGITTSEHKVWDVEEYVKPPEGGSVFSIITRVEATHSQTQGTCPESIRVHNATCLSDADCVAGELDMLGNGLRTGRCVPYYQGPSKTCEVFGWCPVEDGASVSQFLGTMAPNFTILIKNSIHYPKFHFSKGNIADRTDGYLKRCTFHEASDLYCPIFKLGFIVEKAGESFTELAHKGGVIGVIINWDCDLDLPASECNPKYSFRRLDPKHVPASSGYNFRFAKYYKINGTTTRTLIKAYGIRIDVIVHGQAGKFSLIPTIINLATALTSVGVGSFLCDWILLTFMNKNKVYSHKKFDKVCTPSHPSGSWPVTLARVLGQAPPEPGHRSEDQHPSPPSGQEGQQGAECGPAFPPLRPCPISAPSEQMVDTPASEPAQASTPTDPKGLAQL
Protocol: Determination of human P2X2/3 receptor activity inhibition
The assay for the human P2RX2/X3 has been evaluated by the screening instrumentation using the […] as reader and the FLUO8-NoWash dye as fluorescent readout for calcium detection.
CHO-K1 cells recombinantly expressing the human P2RX2/X3 channel are maintained in DMEM F-12 (1:1) mixture (LONZA cat. n°: BE04-687F/U1) supplemented with 5 mL of 100 mM Sodium Pyruvate (LONZA cat. n° BE13-115E), 25 mL of 7.5% Sodium Bicarbonate (LONZA cat. n° BE17-613E), 6.5 mL of 1M Hepes (LONZA cat. n° BE17-737E), 5 mL of 100X Penicillin/Streptomycin mixture (LONZA cat. n° DE17-602E) and 50 mL of Fetal Bovine Serum (Sigma cat. n° F7524), 5 µg/mL Puromycin dihydrochloride (Sigma cat. n° P9620) and 1 mg/ml G418 disulfate salt (Sigma cat. n° G8168).
Cells were seeded into black-walled clear bottom 384 Multiwell plates at a density of 10.000 cells/well in complete medium. After 24 h the culture medium was replaced with 20 µL/well of Fluo-8 NoWash calcium sensitive dye (AAT Bioquest cat. n° 36316) diluted in Tyrode's buffer (Standard Tyrode's buffer: in house solution, 130 mM NaCl, 5 mM KCl, 2 mM CaCl2, 5 mM NaHCO3, 1 mM MgCl2, 20 mM HEPES, pH 7.4).
The plates were incubated for 1 hours at 37°C and injected with 10 µL/well of test compounds at 3X concentration in Tyrode's buffer with the […]. After 5 minutes a second injection of 15 µL/well of 10µM α,β-Met-ATP in Tyrode's buffer (α,β-Met-ATP: from Tocris cat. n° 3209) was performed and the signal of the emitted fluorescence was recorded by […] (Molecular Devices).
The selectivity is expressed as the ratio of IC50 of P2X2/3/ P2X3 receptors. Table 8: Human P2X3 and h-P2X2/3 receptor antagonist activity for selected compounds of the invention.

[3] = system: C57BL/6J mice; test: Scratching model: inhibition of ATP induced pruritus in mouse; format: in vivo; conditions: dose inhibiting the 35% of number of bouts, intraperitoneally 30 min before α,β-meATP 200 µg/50 µL intradermal, bouts counted for 30 minutes
Protocol: C57BL/6J mice, Hartley Guinea pigs and Sprague-Dawley Rats from Charles River Italy were used in the experiments. Animals were housed with free access to food and water and maintained on a forced 12 hr light-dark cycle at 22-24°C for at least one week before the experiments were carried out. The animals were handled according to internationally accepted principles for care of laboratory animals (Directive 2010/63/EU of the European Parliament and of the Council of 22 September 2010).
"Scratchng model" - Inhibition of ATP induced pruritus in mouse
Mice were shaved at the rostral back the day before injection. The day of the experiment, an intradermal injection of the irritant agent α,β-meATP 200 µg/50 µL (Sigma, Italy) into the skin was performed. The hind limb scratching behavior directed toward the injection site, was recorded. One bout was defined as the lifting of the hindlimb toward the injection site and then placing the limb back on the floor. The number of bouts were counted for a period of 30 minutes. The Example 22 compound investigated was injected intraperitoneally 30 min before the administration of the irritant agent. (Fig. 2)
In the scratching model the results are presented as mean ± SEM of the values. Statistical analysis was performed using one-way ANOVA and Dunnet's test for multiple comparisons. The ED35 of the tested compounds was determined by linear regression analysis of bouts (Graphpad v5).

Row | SMILES | IC50 [1] | IC50 [2] | Selectivity [2] | ED35 [3]
1 | CC(=O)N1CCN(c2cnc3c(c2)n(Cc2ccc(Cl)cc2)c(=O)n2c(C(C)(C)C)nnc32)CC1 [Example 34, 8-(4-Acetylpiperazin-1-yl)-3-tert-butyl-6-[(4-chlorophenyl)methyl]pyrido[2,3-e][1,2,4]triazolo[4,3-c]pyrimidin-5(6H)-one] | 43 nM | > 30 µM | >697 | 12.42 mg/kg
2 | COc1ccc(Cn2c(=O)n3c(C(C)(C)C)nnc3c3ncc(N4CCCCC4)cc32)cc1 [Example 38, 3-tert-Butyl-6-[(4-methoxyphenyl)methyl]-8-(piperidin-1-yl)pyrido[2,3-e][1,2,4]triazolo[4,3-c]pyrimidin-5(6H)-one] | 50.6 nM | 19.9 µM | >392 | 
3 | CC(C)(CO)C1CN2C(=O)N(Cc3ccc(Cl)cc3)c3cc(N4CCOCC4)nnc3C2=N1 (stereo not drawn) [Example 17, 5-[(4-Chlorophenyl)methyl]-9-(1-hydroxy-2-methylpropan-2-yl)-3-(morpholin-4-yl)-8,9-dihydroimidazo[1',2':1,6]pyrimido[5,4-c]pyridazin-6(5H)-one] | 41.5 nM | > 30 µM | >722 | 
4 | CC(C)(C)Cc1nnc2c3nnc(N4CCOCC4)cc3n(Cc3ccc(Cl)cc3)c(=O)n12 [Example 49, 6-[(4-Chlorophenyl)methyl]-3-(2,2-dimethylpropyl)-8-(morpholin-4-yl)[1,2,4]triazolo[4',3':1,6]pyrimido[5,4-c]pyridazin-5(6H)-one] | 19.5 nM | > 30 µM | >1500 | 
5 | COC(C)(C)c1nnc2c3nnc(N4CCOCC4)cc3n(Cc3ccc(Cl)cc3)c(=O)n12 [Example 48, 6-[(4-Chlorophenyl)methyl]-3-(2-methoxypropan-2-yl)-8-(morpholin-4-yl)[1,2,4]triazolo[4',3': 1,6]pyrimido[5,4-c]pyridazin-5(6H)-one] | 24.9 nM | > 30 µM | >1000 | 
6 | CC(C)C1C(=O)N=C2c3nnc(N4CCOCC4)cc3N(Cc3ccc(Cl)cc3)C(=O)N21 (stereo not drawn) [Example 28, 5-[(4-Chlorophenyl)methyl]-3-(morpholin-4-yl)-8-(propan-2-yl)imidazo[1',2':1,6]pyrimido[5,4-c]pyridazine-6,9(5H,8H)-dione] | 16.6 nM | > 30 µM | >1800 | 22.54 mg/kg
7 | COc1ccc(Cn2c(=O)n3c(C(C)(C)C)nnc3c3ncc(N4CCOCC4)cc32)cc1 [Example 29, 3-tert-Butyl-6-(4-methoxybenzyl)-8-(morpholin-4-yl)pyrido[2,3-e][1,2,4]triazolo[4,3-c]pyrimidin-5(6H)-one] | 34.8 nM | 19.7 µM | 566 | 
8 | CN(C)c1nnc2c3nnc(N4CCOCC4)cc3n(Cc3ccc(Cl)cc3)c(=O)n12 [Example 50, 6-[(4-Chlorophenyl)methyl] -3 - (dimethylamino)-8-(morpholin-4-yl)[1,2,4]triazolo[4',3': 1,6]pyrimido[5,4-c]pyridazin-5(6H)-one] | 98.6 nM | > 30 µM | >304 | 
9 | CC(C)(C)c1nnc2c3ncc(N4CC[C@@H](O)C4)cc3n(Cc3ccc(Cl)cc3)c(=O)n12 [Example 43, 3-tert-Butyl-6-[(4-chlorophenyl)methyl]-8-[(3R)-3-hydroxypyrrolidin-1-yl]pyrido[2,3-e][1,2,4]triazolo[4,3-c]pyrimidin-5(6H)-one] | 67.6 nM | > 30 µM | >444 | 
10 | CC(C)(C)c1nnc2c3nnc(N4CCOCC4)cc3n(Cc3ccc(Cl)cc3)c(=O)n12 [Example 44, 3-tert-Butyl-6-[(4-chlorophenyl)methyl]-8-(morpholin-4-yl)[1,2,4]triazolo[4',3': 1,6]pyrimido[5,4-c]pyridazin-5(6H)-one] | 6.73 nM | 3.9 µM | 582 | 9.06 mg/kg
11 | CC(C)(C)c1nnc2c3ncc(N4CCOCC4)cc3n(Cc3ccc(Cl)cc3)c(=O)n12 [Example 30, 3-tert-Butyl-6-[(4-chlorophenyl)methyl]-8-(morpholin-4-yl)pyrido[2,3-e][1,2,4]triazolo[4,3-c]pyrimidin-5(6H)-one] | 64.3 nM | > 30 µM | >466 | 

— patent EP4389746A2, “P2X3 RECEPTOR ANTAGONISTS” (Recordati Industria Chimica E Farmaceutica SPA, priority 2022, dated 2024)
